How the values were obtained:
[1] = tested on: LFA-1/D1-D2-Fc (ICAM-1) interaction; experiment: Steady-state FRET based competitive screening assay for inhibition of the LFA-1/D1-D2-Fc interaction; type: binding, human; conditions: for inhibition efficiency: 100 nM Alexa Fluor 488-LFA-1 + 100 nM Alexa Fluor 555-D1-D2-Fc, PBS, pH 7.4, 1 mM EGTA, 2 mM Mg^2+, 30 min, dark, calculated from FRET efficiency, Eq. (1); for FRET efficiency: mean ± rms, control without inhibitor 53.51 ± 0.10%, A/D = 2.12, excitation 470 nm, Eq. (3); for rank of inhibition efficiency among the three LFA-1 derived peptides: 0.02, 0.2, 2 and 20 µM
Description: But with increasing concentration of the lovastatin, the FRET efficiency decreased to 5.3% for 200 µM of lovastatin. The inhibition efficiency (%) was calculated for each concentration of lovastatin using the relation,
[drawing 1] (1) where Fcontrol is the FRET efficiency of the Alexa Fluor 488-LFA-1 and Alexa Fluor 555-D1-D2-Fc alone and Fx is that of the FRET mixture when incubated with inhibitors. The inhibition efficiency of lovastatin was calculated to be 69.48±0.77%, 73.84±0.56%, 84.98±0.10%, and 90.03±0.06% for 0.2, 2, 20, and 200 µM respectively [Fig. 7(a)].
To characterize and compare the inhibitory activity of the selected peptides, CD11a237–261, CD11a441–465, and CD11a456–465, the FRET mixture was incubated with several concentrations (0.02, 0.2, 2, and 20 µM) of the peptides (following the procedure described in the “Materials and Methods” section) and the FRET efficiency (Tables S3, S4, S5) and the inhibition efficiency [Fig. 7(b)] were calculated for each case. The inhibition efficiency for CD11a237–261 at 0.02, 0.2, 2, and 20 µM are 40.81±0.31%, 47.05±0.56%, 53.16±0.70%, 65.13±0.81%, respectively; the corresponding values for CD11a441–465, at the same concentrations, are 20.89±0.72%, 37.08±0.29%, 46.93±0.89%, 62.01±0.15%, respectively; and for CD11a456–465, the corresponding values are 12.17±0.91%, 20.26±0.69%, 36.46±0.42%, 51.41±0.33%. From these values, we note that the difference in inhibition efficiency of these three peptides is much more significant at low peptide concentration (on the order of 0.02 to 0.2 µM), the cause of which requires further investigation. Nevertheless, in all cases, the inhibition efficiency of CD11a237–261 is highest and CD11a456–465 the lowest, which are in good agreement with those reported in the literature.
The FRET efficiency can be adjusted by changing the fluorophore to protein ratio; the optimal acceptor to donor fluorophore (A/D) ratio was obtained following the procedure reported in the literature with slight modification. In short, A/D is defined as the number of the acceptor fluorophore molecules to donor molecule in the interacting protein complex. Several concentration ratios of Alexa Fluor 488-LFA-1 and Alexa Fluor 555-D1-D2-Fc were incubated for 30 minutes at room temperature and the FRET emission spectra were obtained via a fluorescence multiplate reader, Tecan Infinite M200 pro (Männedorf, Switzerland). For each concentration ratio, the concentration of the acceptor conjugate, Alexa Fluor 555-D1-D2-Fc, was kept constant. The optimal A/D ratio for the FRET pair was selected by comparing the FRET efficiencies for different A/D ratios. […] Due to these facts, we have used equation (3), [65] given below for the FRET efficiency (E) calculation which incorporates the cross-talk corrections for each of the A/D ratios. [drawing 3] (3) here, (λ470, λ) denotes the numerical integral of the emission spectrum between 560 and 610 nm when excited with 470 nm. fDA, fA, and fD represent the emission spectra of the FRET mixture, acceptor alone, and donor alone, respectively. The absorbance values of donor and acceptor, at the excitation maximum of Alexa Fluor 488 of 470 nm, is represented by A^D and A^A, respectively. […] In this article, the calculation was implemented assuming that there […] in the overlap integral with different F/P and the (associated) different A/D ratios. The optimal A/D ratio was used for the development of the FRET based screening platform for the assessment of peptides and small molecules for their inhibition efficiency of the LFA-1 and ICAM-1 interactions.
The donor, Alexa Fluor 488-LFA-1, with a concentration corresponding to the […] A/D ratio was mixed with each kind of LFA-1 derived peptides (CD11a237–261, CD11a441–465, and CD11a456–465) in PBS, pH 7.4, 1 mM EGTA and 2 mM Mg^2+. […]

[2] = tested on: interaction of ICAM-1 with LFA-1; set-up: method as in PMID 12368073; conditions: ref [34]; cited from earlier work
Description: Based on these roles in several disease pathologies, the LFA-1/ICAM-1 interaction can serve as a potential therapeutic target in the development of new therapies for the autoimmune diseases, metastasis cancer, and viral diseases. […] Furthermore, several […] therapies were developed for the treatment of autoimmune diseases. However, […] therapies have serious side effects in humans due to their large molecular structure an ...

[3] = tested on: I-domain of LFA-1 (CD11a I-domain); conditions: ref [58]; cited from earlier work
Description: In our study, we identified three LFA-1 derived peptides, CD11a237–261, […], and CD11a456–465, to compare their inhibition efficiency via our steady-state FRET based competitive screening assay. Moreover, the inhibition efficiency of lovastatin, a well-known potent inhibitor of the ICAM-1 interaction, was also obtained to further validate the FRET screening platform. ...

[4] = tested on: human immunodeficiency virus type 1; conditions: ref [59]; cited from earlier work

GVDVDQDGETEL-IGAPLFYGEQRG [CD11a441–465, LFA-1α derived peptide, purchased from GenScript]
inhibition efficiency ([1]; 0.02 µM inhibitor): 20.89±0.72%
FRET efficiency ([1]; 0.02 µM inhibitor): 42.33 ± 0.23%
inhibition efficiency ([1]; 0.2 µM inhibitor): 37.08±0.29%
FRET efficiency ([1]; 0.2 µM inhibitor): 33.67 ± 0.51%
inhibition efficiency ([1]; 2 µM inhibitor): 46.93±0.89%
FRET efficiency ([1]; 2 µM inhibitor): 28.40 ± 0.02%
inhibition efficiency ([1]; 20 µM inhibitor): 62.01±0.15%
FRET efficiency ([1]; 20 µM inhibitor): 20.33 ± 0.53%

CC[C@H](C)C(=O)O[C@H]1C[C@@H](C)C=C2C=C[C@H](C)[C@H](CC[C@@H]3C[C@@H](O)CC(=O)O3)[C@H]21 [lovastatin, reference compound]
inhibition of the interaction of ICAM-1 with LFA-1 [2]: specifically inhibits the interaction of ICAM-1 with LFA-1
binding to the I-domain of LFA-1 [3]: binds with the highly conserved I-domain of LFA-1
effect on HIV-1 replication [4]: reduction of human immunodeficiency virus type 1 replication
inhibition efficiency ([1]; 0.2 µM inhibitor): 69.48±0.77%
FRET efficiency ([1]; 0.2 µM inhibitor): 16.33 ± 0.76%
inhibition efficiency ([1]; 2 µM inhibitor): 73.84±0.56%
FRET efficiency ([1]; 2 µM inhibitor): 14.00 ± 0.57%
inhibition efficiency ([1]; 20 µM inhibitor): 84.98±0.10%
FRET efficiency ([1]; 20 µM inhibitor): 8.03 ± 0.01%
inhibition efficiency ([1]; 200 µM inhibitor): 90.03±0.06%
FRET efficiency ([1]; 200 µM inhibitor): 5.3%
FRET efficiency ([1]; 200 µM inhibitor, listed as Lovastatin): 5.33 ± 0.01%

APLFY- GEQRG [CD11a456–465, LFA-1α derived peptide, purchased from GenScript]
inhibition efficiency ([1]; 0.02 µM inhibitor): 12.17±0.91%
FRET efficiency ([1]; 0.02 µM inhibitor): 47.00 ± 0.81%
inhibition efficiency ([1]; 0.2 µM inhibitor): 20.26±0.69%
FRET efficiency ([1]; 0.2 µM inhibitor): 42.67 ± 0.57%
inhibition efficiency ([1]; 2 µM inhibitor): 36.46±0.42%
FRET efficiency ([1]; 2 µM inhibitor): 34.00 ± 0.08%
inhibition efficiency ([1]; 20 µM inhibitor): 51.41±0.33%
FRET efficiency ([1]; 20 µM inhibitor): 26.00 ± 0.58%
rank of inhibition efficiency among the three LFA-1 derived peptides [1]: the lowest

ITDGEATDSGNIDAAKDIIR-YIIGI [CD11a237–261, LFA-1α derived peptide, purchased from GenScript]
inhibition efficiency ([1]; 0.02 µM inhibitor): 40.81±0.31%
FRET efficiency ([1]; 0.02 µM inhibitor): 31.67 ± 0.06%
inhibition efficiency ([1]; 0.2 µM inhibitor): 47.05±0.56%
FRET efficiency ([1]; 0.2 µM inhibitor): 28.33 ± 0.51%
inhibition efficiency ([1]; 2 µM inhibitor): 53.16±0.70%
FRET efficiency ([1]; 2 µM inhibitor): 25.06 ± 0.66%
inhibition efficiency ([1]; 20 µM inhibitor): 65.13±0.81%
FRET efficiency ([1]; 20 µM inhibitor): 18.66 ± 0.06%
rank of inhibition efficiency among the three LFA-1 derived peptides [1]: highest inhibition efficiency
